This note sets out measurements from US20240109917A1 (ACTELION PHARMACEUTICALS LTD, priority 2020, published 2024).

Where two headings read alike, the source gives them in different places.

Assay [1] deals with Tb-labeled inactive PDGFRβ (Homo sapiens (Human), UniProt P09619). In words: PDGFRβ LanthaScreen Assay. Format: binding. The note with it: read-out: PDGFR Lantha IC50. (In TR-FRET formats the signal depends on donor and acceptor labels being close together.)
The next assay deals with PDGFRβ (Rattus norvegicus (Rat), UniProt Q05030). In words: PDGFRβ Cellular Assay (PDGFRb P-Y751 HTRF in A10 cells stimulated with PDGF-BB). The assay is classed as cell-based. The method in brief: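 Rat A10 cells, plated overnight, were treated with compound for 3 hours, then stimulated with PDGF-BB (working stock 100 ng/mL in 10% FBS medium). After lysis, PDGFRβ P-Y751 was detected by HTRF.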

A further assay concerns the target VEGFR2, unphosphorylated (Homo sapiens (Human), UniProt P35968). In words: VEGFR ADP GLO Assay. The assay is classed as biochemical.

Chain of PDGFRβ (Q05030 32-1097): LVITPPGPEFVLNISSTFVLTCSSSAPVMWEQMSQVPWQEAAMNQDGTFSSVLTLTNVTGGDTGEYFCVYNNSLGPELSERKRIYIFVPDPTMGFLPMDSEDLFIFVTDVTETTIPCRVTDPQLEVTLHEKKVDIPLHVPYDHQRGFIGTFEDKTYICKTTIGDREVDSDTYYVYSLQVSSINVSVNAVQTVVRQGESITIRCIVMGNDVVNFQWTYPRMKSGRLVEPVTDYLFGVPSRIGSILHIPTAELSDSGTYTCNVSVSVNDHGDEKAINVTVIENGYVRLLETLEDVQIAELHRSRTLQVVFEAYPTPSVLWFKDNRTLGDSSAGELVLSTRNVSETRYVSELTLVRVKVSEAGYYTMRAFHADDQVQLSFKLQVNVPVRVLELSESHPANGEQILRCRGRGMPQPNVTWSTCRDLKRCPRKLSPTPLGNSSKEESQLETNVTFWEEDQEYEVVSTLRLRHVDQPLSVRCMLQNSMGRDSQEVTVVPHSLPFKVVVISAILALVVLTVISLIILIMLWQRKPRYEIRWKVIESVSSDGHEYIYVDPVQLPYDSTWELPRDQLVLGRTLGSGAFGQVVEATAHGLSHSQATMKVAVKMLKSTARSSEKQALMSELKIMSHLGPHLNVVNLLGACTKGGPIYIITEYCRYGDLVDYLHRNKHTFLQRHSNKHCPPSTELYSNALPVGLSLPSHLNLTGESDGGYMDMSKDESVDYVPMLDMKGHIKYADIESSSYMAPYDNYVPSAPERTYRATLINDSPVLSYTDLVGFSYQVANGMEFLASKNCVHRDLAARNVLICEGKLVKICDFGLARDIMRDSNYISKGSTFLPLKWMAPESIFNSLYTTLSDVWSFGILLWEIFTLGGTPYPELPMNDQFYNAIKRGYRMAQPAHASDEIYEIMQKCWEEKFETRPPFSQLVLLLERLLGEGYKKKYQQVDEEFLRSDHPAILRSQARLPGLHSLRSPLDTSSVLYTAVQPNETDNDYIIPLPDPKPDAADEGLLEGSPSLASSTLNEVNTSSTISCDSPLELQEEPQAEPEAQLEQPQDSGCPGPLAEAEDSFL
Chain of Tb-labeled inactive PDGFRβ (P09619 33-1106): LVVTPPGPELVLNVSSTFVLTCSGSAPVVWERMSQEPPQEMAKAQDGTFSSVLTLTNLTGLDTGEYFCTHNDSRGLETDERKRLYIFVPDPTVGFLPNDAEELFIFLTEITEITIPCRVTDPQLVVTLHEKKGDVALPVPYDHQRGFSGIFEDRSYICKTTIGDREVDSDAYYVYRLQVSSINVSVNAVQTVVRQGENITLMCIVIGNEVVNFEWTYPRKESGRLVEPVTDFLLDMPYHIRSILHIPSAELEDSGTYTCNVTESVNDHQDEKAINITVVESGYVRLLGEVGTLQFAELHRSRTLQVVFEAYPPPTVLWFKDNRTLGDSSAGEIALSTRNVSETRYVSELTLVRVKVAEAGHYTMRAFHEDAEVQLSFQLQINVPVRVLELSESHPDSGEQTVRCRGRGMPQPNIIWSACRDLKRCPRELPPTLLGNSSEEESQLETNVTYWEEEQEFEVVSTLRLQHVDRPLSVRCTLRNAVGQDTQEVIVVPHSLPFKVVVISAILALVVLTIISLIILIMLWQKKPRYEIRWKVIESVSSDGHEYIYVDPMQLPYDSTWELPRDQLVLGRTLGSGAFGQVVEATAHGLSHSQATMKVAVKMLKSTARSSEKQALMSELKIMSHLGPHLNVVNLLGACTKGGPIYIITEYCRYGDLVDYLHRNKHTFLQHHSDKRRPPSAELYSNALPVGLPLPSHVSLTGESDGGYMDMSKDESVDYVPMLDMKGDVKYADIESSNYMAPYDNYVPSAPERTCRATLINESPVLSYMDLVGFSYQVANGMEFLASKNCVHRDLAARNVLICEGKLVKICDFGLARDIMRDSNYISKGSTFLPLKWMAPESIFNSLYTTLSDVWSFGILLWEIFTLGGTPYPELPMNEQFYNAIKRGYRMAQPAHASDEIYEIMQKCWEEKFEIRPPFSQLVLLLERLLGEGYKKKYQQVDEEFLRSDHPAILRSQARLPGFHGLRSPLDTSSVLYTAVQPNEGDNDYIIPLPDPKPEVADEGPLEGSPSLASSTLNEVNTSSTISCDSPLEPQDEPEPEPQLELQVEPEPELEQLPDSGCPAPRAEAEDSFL
Chain of VEGFR2, unphosphorylated (P35968 20-1356): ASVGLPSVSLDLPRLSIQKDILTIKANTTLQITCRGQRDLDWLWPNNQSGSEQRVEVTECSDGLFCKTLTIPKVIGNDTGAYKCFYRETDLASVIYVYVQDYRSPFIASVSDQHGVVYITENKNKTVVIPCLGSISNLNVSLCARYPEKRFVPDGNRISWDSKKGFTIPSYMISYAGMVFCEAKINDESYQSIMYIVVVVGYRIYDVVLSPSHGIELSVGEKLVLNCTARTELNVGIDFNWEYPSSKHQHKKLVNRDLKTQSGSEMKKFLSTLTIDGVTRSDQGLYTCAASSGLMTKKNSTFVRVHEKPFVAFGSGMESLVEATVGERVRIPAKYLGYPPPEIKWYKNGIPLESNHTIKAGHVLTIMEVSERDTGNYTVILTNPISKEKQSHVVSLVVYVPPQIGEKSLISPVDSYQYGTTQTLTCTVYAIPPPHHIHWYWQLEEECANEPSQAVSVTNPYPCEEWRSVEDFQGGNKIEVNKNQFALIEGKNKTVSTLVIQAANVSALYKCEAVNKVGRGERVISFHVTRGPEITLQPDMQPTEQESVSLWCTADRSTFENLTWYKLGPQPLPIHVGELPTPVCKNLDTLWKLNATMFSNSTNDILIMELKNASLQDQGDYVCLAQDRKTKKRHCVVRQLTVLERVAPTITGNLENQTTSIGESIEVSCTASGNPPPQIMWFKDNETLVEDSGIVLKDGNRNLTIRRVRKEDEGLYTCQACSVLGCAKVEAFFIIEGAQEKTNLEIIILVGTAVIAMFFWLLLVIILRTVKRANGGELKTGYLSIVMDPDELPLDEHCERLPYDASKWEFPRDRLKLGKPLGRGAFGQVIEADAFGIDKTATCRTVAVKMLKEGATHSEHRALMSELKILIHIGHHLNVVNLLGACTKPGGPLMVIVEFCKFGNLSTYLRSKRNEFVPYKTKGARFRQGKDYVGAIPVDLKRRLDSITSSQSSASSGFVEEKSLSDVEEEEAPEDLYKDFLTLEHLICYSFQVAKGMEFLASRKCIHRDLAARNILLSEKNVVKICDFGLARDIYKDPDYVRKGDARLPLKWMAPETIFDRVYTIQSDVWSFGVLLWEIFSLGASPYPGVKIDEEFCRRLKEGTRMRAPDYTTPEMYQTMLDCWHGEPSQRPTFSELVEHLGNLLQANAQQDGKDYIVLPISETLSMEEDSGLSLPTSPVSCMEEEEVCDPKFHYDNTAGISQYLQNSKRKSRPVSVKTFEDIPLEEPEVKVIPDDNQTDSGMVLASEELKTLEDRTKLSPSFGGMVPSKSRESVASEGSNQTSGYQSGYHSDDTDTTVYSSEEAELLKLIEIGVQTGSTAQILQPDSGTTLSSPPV

For `COc1ncccc1-c1cn2ncc(C(=O)Nc3cc(NC(=O)C4CCCCN4C(C)C)cnc3C)c2s1` (stereo not drawn) [Example 315, N-(5-(1-isopropylpiperidine-2-carboxamido)-2-methylpyridin-3-yl)-2-(2-methoxypyridin-3-yl)pyrazolo[5,1-b]thiazole-7-carboxamide], the IC50 – broadly, the point on the concentration scale where inhibition reaches its midpoint – in assay [1] was found to be 4.6 nM; on PDGFRβ (read-out: PDGFR Cellular IC50), 5.4 nM; at VEGFR2, unphosphorylated it was 4990 nM.
The matching figures for `Cc1ncc(NC(=O)[C@@H]2C[C@H](C)CN2C)cc1NC(=O)c1cnn2cc(-c3cccnc3O)sc12` [Example 316, N-(5-((2S,4S)-1,4-dimethylpyrrolidine-2-carboxamido)-2-methylpyridin-3-yl)-2-(2-hydroxypyridin-3-yl)pyrazolo[5,1-b]thiazole-7-carboxamide]: 21.7 nM, 58.3 nM and above 7500 nM.
For `COc1ncccc1-c1cn2ncc(C(=O)Nc3cc(NC(=O)[C@@H]4C[C@H](C)CN4C)cnc3C)c2s1` [Example 317, N-(5-((2S,4S)-1,4-dimethylpyrrolidine-2-carboxamido)-2-methylpyridin-3-yl)-2-(2-methoxypyridin-3-yl)pyrazolo[5,1-b]thiazole-7-carboxamide], the IC50 in assay [1] was 2.5 nM; on PDGFRβ (read-out: PDGFR Cellular IC50), 6.5 nM; at VEGFR2, unphosphorylated it was above 7500 nM.
Regarding `COc1ncccc1-c1cn2ncc(C(=O)Nc3cc(NC(=O)CN4CCO[C@H](C)C4)cnc3C)c2s1` [Example 318, (R)-2-(2-methoxypyridin-3-yl)-N-(2-methyl-5-(2-(2-methylmorpholino)acetamido)pyridin-3-yl)pyrazolo[5,1-b]thiazole-7-carboxamide], the IC50 was 1.9 nM in assay [1]; 3.8 nM on PDGFRβ (PDGFR Cellular IC50); above 7500 nM against VEGFR2, unphosphorylated.
For `COc1ncccc1-c1cn2ncc(C(=O)Nc3cc(NC(=O)CN4CCOC(C)(C)C4)cnc3C)c2s1` [Example 319, N-(5-(2-(2,2-dimethylmorpholino)acetamido)-2-methylpyridin-3-yl)-2-(2-methoxypyridin-3-yl)pyrazolo[5,1-b]thiazole-7-carboxamide], the half-maximal inhibitory concentration (IC50) is 1.8 nM in assay [1]; 2.7 nM on PDGFRβ (read-out: PDGFR Cellular IC50); above 7500 nM against VEGFR2, unphosphorylated.
For `COc1ncccc1-c1cn2ncc(C(=O)Nc3cc(NC(=O)CN4CCC5(CCOC5)C4)cnc3C)c2s1` (stereo not drawn) [Example 320, N-(5-(2-(2-oxa-7-azaspiro[4.4]nonan-7-yl)acetamido)-2-methylpyridin-3-yl)-2-(2-methoxypyridin-3-yl)pyrazolo[5,1-b]thiazole-7-carboxamide], the IC50 in assay [1] was 1.4 nM; at PDGFRβ (read-out: PDGFR Cellular IC50), 1.6 nM; against VEGFR2, unphosphorylated, above 7500 nM.
The matching figures for `COc1ncccc1-c1cn2ncc(C(=O)Nc3cc(NC(=O)CN4CCCC5(CC5)C4)cnc3C)c2s1` [Example 321, N-(5-(2-(5-azaspiro[2.5]octan-5-yl)acetamido)-2-methylpyridin-3-yl)-2-(2-methoxypyridin-3-yl)pyrazolo[5,1-b]thiazole-7-carboxamide]: 1 nM, 1.2 nM and above 7500 nM.
The matching figures for `Cc1ncc(NC(=O)C[C@@H]2CCCN2C(C)C)cc1NC(=O)c1cnn2cc(-c3cccnc3O)sc12` [Example 322, (S)-2-(2-hydroxypyridin-3-yl)-N-(5-(2-(1-isopropylpyrrolidin-2-yl)acetamido)-2-methylpyridin-3-yl)pyrazolo[5,1-b]thiazole-7-carboxamide]: 15.5 nM, 122 nM and above 7500 nM.
As for `COc1ncccc1-c1cn2ncc(C(=O)Nc3cc(NC(=O)C[C@@H]4CCCN4C(C)C)cnc3C)c2s1` [Example 323, (S)—N-(5-(2-(1-isopropylpyrrolidin-2-yl)acetamido)-2-methylpyridin-3-yl)-2-(2-methoxypyridin-3-yl)pyrazolo[5,1-b]thiazole-7-carboxamide], the IC50 is 1.7 nM in assay [1]; 2.8 nM at PDGFRβ (read-out: PDGFR Cellular IC50); above 7500 nM against VEGFR2, unphosphorylated.
The matching figures for `COc1ncccc1-c1cn2ncc(C(=O)Nc3cc(NC(=O)CN4CCC5(CC5)C4)cnc3C)c2s1` [Example 324, N-(5-(2-(5-azaspiro[2.4]heptan-5-yl)acetamido)-2-methylpyridin-3-yl)-2-(2-methoxypyridin-3-yl)pyrazolo[5,1-b]thiazole-7-carboxamide]: 0.7 nM, 1.1 nM and 5240 nM.
Taken in the same sequence, the figures for `COCCn1cc(-c2cn3ncc(C(=O)Nc4cc(NC(=O)CN5CCC[C@@H]5C)cnc4C)c3s2)cn1` [Example 325, (S)-2-(1-(2-methoxyethyl)-1H-pyrazol-4-yl)-N-(2-methyl-5-(2-(2-methylpyrrolidin-1-yl)acetamido)pyridin-3-yl)pyrazolo[5,1-b]thiazole-7-carboxamide] were 16.3 nM, 10.7 nM and above 7500 nM.
As to `COCCn1cc(-c2cn3ncc(C(=O)Nc4cc(NC(=O)CN5CCC6(CC6)C5)cnc4C)c3s2)cn1` [Example 326, N-(5-(2-(5-azaspiro[2.4]heptan-5-yl)acetamido)-2-methylpyridin-3-yl)-2-(1-(2-methoxyethyl)-1H-pyrazol-4-yl)pyrazolo[5,1-b]thiazole-7-carboxamide], the IC50 in assay [1] is 3.7 nM; against PDGFRβ (PDGFR Cellular IC50), 3 nM; against VEGFR2, unphosphorylated, above 7500 nM.
The matching figures for `COCCn1cc(-c2cn3ncc(C(=O)Nc4cc(NC(=O)CN5CCCC5(C)C)cnc4C)c3s2)cn1` [Example 329, N-(5-(2-(2,2-dimethylpyrrolidin-1-yl)acetamido)-2-methylpyridin-3-yl)-2-(1-(2-methoxyethyl)-1H-pyrazol-4-yl)pyrazolo[5,1-b]thiazole-7-carboxamide]: 5.6 nM, 4.4 nM and above 7500 nM.
`COCCn1cc(-c2cn3ncc(C(=O)Nc4cc(NC(=O)CN5CCC[C@H]5C)cnc4C)c3s2)cn1` [Example 330, (R)-2-(1-(2-methoxyethyl)-1H-pyrazol-4-yl)-N-(2-methyl-5-(2-(2-methylpyrrolidin-1-yl)acetamido)pyridin-3-yl)pyrazolo[5,1-b]thiazole-7-carboxamide]: the IC50 in assay [1] was 9.6 nM; on PDGFRβ (read-out: PDGFR Cellular IC50) it was 6.8 nM; against VEGFR2, unphosphorylated, above 7500 nM.
